# Measurements reported in patent US7307102B2, “Method of preventing or treating estrogen-dependent diseases and disorders” (Duke University, priority 1997, dated 2007).
# Key:
# [1] = Total serum cholesterol in ovariectomized rats; type: in vivo, rat; conditions: OVX rats, 28 days, lowest concentration tested, FIG. 4
# Description: (§1) Animal preparation. […] At sacrifice, animals were euthanized with C02, body weights were recorded and the uteri were removed and weighed. Uterus, vagina and mammary tissue were fixed in 10% neutral buffered formalin. Samples for histologic processing were taken from the mid-point of each uterine horn. Tissue samples were embedded in paraffin, stained with haematoxylin and eosin and evaluated microscopically. Lumbar vertebrae and both left and right tibiae were excised. Total blood cholesterol was measured (Roche Biomedical Laboratories).
# [2] = system: MCF-7 breast cancer tumors; assay: Dose response study, MCF-7 breast cancer tumors in nude mice (Example 5); type: in vivo, mouse; conditions: after 8 weeks, 0.6 mg and 1.0 mg vs 1.0 mg tamoxifen, FIG. 10
# Description: 10 OVX donor mice were injected with 5 million MCF-7 cells. The resulting tumors were transplanted to recipient mice. All animals were given slow release estradiol pellets. […] Tumors were measured daily with calipers, and the area calculated as follows: Area=½×w/2×π.
# [3] = Uterotrophic assay in immature rats
# Description: FIG. 5. […] The data shown represent the mean value (±SEM).
# Twenty-one day old female Sprague-Dawley rats (30-35 gms) were obtained from Harlan or Taconic Laboratories. Animals were sorted randomly into treatment groups of five, and average weights were recorded for each treatment group. Weights were recorded on each treatment day. […] On day of dosing, drug was diluted in 0.5% methyl cellulose, viscosity of 2% at 25° C.:400 centipoises (Sigma, St. Louis, Mo.)). Oral dosing by gavage was based on a total volume of 10 ml/kg body weight. […] Subcutaneous dosing was based on a total of 2 ml/kg body weight. […] On day 4, animals were sacrificed by C02 asphyxiation, body weights were obtained and uteri were removed, blotted and weighed. Data were expressed as uterine weight/body weight.
# In this assay, uterine wet weight was used as a measure of ER-agonist activity in this tissue (FIG. 5).
# MCF-7/LCC2 = assay: LCC2 study, MCF-7/LCC2 tumors in nude mice; type: in vivo, mouse; conditions: after 8 weeks, 1.0 mg every three days, FIG. 11
# Description: This experiment was conducted to determine the ability of GW5638 to retard the growth of this cell line in nude mice relative to control or tamoxifen treated tumors.
# 40 OVX mice were prepared to accept cells and grouped as follows:
# Control animals received nothing and groups 3 and 4 received 0.1 ml injections in corn oil every three days. Tumors were measured Q3 days with calipers, and the area calculated as follows: Area=½×w/2×π.
# [4] = Bone mineral density in ovariectomized rats (DEXA, pQCT); type: in vivo, rat; conditions: oral, 28 days
# Description: FIGS. 3A and 3B. […] FIG. 3A. […] FIG. 3B.
# as §1
# [5] = biological target: T1, wild-type human estrogen receptor (ERwt) (Homo sapiens, UniProt P03372); assay: C3 promoter-luciferase cotransfection assay in HepG2 cells, ERwt; type: cell-based
# T1 construct: expressed in transfected cells; host or cells: HepG2
# T1 sequence (P03372 1-595): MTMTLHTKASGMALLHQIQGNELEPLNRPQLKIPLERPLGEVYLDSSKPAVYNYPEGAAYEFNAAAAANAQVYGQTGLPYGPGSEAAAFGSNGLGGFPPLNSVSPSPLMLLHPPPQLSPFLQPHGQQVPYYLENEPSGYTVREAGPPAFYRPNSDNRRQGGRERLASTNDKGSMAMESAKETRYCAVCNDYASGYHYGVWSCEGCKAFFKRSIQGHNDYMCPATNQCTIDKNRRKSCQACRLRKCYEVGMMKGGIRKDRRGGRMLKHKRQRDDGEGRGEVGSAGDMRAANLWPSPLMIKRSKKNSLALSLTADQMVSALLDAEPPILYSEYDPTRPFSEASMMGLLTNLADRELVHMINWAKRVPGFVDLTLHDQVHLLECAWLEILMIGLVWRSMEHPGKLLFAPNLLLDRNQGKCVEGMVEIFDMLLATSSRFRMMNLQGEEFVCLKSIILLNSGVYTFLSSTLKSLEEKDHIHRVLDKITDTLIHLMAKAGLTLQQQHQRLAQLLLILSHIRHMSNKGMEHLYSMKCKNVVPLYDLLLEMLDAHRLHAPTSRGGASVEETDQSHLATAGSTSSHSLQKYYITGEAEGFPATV
# Description: FIGS. 1A and 1B. […] The human C3 promoter (−1807 to +58) fused to the firefly luciferase reporter gene was transfected along with an expression plasmid containing (FIG. 1A) the wild-type human estrogen receptor (ERwt), or (FIG. 1B) a mutated ER in which the AF-2 function had been disrupted (ER-TAFl) into HepG2 cells and tested for transcriptional activation in the presence of increasing concentrations of ER-modulator as indicated. Transfections were normalized for efficiency and cell number by cotransfecting an expression plasmid containing β-galactosidase. The normalized response was obtained by dividing light units by the activity of β-galactosidase as measured in an enzymatic assay. Triplicate transfections were performed. The data shown are representative of multiple experiments performed under similar conditions.
# FIGS. 2A-2C. […] FIG. 2A. […] FIG. 2B. […] FIG. 2C. […] Transfections were normalized for efficiency and cell number by cotransfecting an expression plasmid containing β-galactosidase. The normalized response was obtained by dividing light units by the activity of β-galactosidase as measured in an enzymatic assay. Representative assays are shown in which triplicate transfections were performed. Error bars represent the standard error of the mean (SEM).
# HepG2 cells were maintained in Modified Eagles Medium (MEM) (Life Technologies, Grand Island, N.Y.) plus 10% Fetal Calf Serum (FCS) (Life Technologies). Cells were plated in 24 well plates (coated with gelatin) 24 hours prior to transfection. DNA was introduced into the cells using Lipofectin (Life Technologies). Briefly, triplicate transfections were performed using 3 μg of total DNA. For standard transfections, 500 ng of pCMV-β-Gal (normalization vector), 1500 ng reporter (variable) and 1000 ng receptor (pRST7-hER (Dana et al, Mol. Endocrinol. 8:1193-1207 (1994)) were used for each triplicate. Incubation of the cells with Lipofectin proceeded for 3 hrs, at which time media was removed, cells were washed with PBS and then induced with the appropriate hormone diluted in phenol red-free media containing 10% charcoal stripped CS (Cyclone Inc.). Incubation with hormone continued for 48 hrs, after which cells were lysed and assayed for luciferase and β-galactosidase activity as previously described (Norris et al, JBC 270:22777-22782 (1995)).
# A series of in vitro screens have been developed that permit the classification of ER-modulators into four mechanistically distinct groups (Tzukerman et al, Mol. Endocrinol. 8:21-30 (1994)). […] Using these assays, it has been possible to derive “fingerprints” of known ER-modulators (McDonnell et al, Mol. Endocrinol. 9:659-669 (1995)).
# Subsequently, the transfected cells were assayed for luceriferase and β-galactosidase activity. Each data point in this experiment represents the average of triplicate determinations of the transcriptional activity under given experimental conditions.
smiles,measurement,setting,value
CC/C(=C(\c1ccccc1)c1ccc(/C=C/C(=O)O)cc1)c1ccccc1 [GW5638],total serum cholesterol level,[1],as effective as estradiol in decreasing serum cholesterol levels
same,tumor growth compared with tamoxifen,[2],indistinguishable from the 1.0 mg tamoxifen
same,inhibition of the agonist activity of estradiol in the uterus,"[3]; 21 day old immature rats, in the presence of estradiol",could completely inhibit the agonist activity of estradiol
same,uterotrophic activity at 10 μm/kg/d,"[3]; rat, in vivo, po",inactive
same,tumor growth,MCF-7/LCC2,equally inhibit growth of this tumor
same,"bone mineral density, lumbar spine","[4]; 90-day old OVX rats, FIG. 3A",dose-dependent bone protective activity
same,tibial BMD,"[4]; OVX rats, FIG. 3B",effective at maintaining total bone mass
same,dose at which bone protection is as effective as estradiol,"[4]; lumbar spine BMD, OVX rats, 3 μmol/kg(1 mg/kg)",3 µmol/kg
same,"reversal of the inverse agonist activity of ICI182,780","[5]; C3 promoter, co-addition with ICI182,780, FIG. 2C",partially reversed
same,inhibition of the agonist activity manifested by tamoxifen or estradiol,"[5]; ERwt, 10^−8M 17-β-estradiol or tamoxifen, FIG. 2A",inhibited
same,agonist / inverse agonist activity on the C3 promoter,"[5]; ERwt, compound alone, FIG. 1A/2A",do not demonstrate any agonist or antagonist activity
